Experiments:
[1] = molecular target: T1, Multidrug and toxin extrusion protein 1 (Homo sapiens, UniProt Q96FL8); assay: Substrate activity at MATE1 (unknown origin) expressed in HEK293 cells assessed as ratio of uptake by the enantiomer with higher value to enantiomer with lower value at 2.5 uM measured after 1 min by HPLC-MS/MS analysis; assay type: cell-based; conditions: hek293, 1 min
T1 sequence (Q96FL8 whole entry): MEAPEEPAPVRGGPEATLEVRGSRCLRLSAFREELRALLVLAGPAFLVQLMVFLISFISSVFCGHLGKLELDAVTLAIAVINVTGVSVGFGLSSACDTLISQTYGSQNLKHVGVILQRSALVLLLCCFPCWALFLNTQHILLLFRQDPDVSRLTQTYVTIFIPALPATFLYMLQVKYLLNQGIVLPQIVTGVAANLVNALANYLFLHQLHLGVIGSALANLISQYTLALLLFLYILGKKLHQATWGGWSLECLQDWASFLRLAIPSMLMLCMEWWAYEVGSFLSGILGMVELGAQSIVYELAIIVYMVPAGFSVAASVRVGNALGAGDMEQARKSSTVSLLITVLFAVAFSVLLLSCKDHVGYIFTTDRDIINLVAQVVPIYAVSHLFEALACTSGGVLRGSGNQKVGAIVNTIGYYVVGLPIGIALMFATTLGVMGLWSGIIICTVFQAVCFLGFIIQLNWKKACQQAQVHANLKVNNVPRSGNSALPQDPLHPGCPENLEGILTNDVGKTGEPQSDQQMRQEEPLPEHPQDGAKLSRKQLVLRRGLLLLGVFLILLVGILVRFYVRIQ

[2] = molecular target: T2, Multidrug and toxin extrusion protein 2 (Homo sapiens, UniProt Q86VL8); assay: Substrate activity at MATE2-K (unknown origin) expressed in HEK293 cells assessed as ratio of uptake by the enantiomer with higher value to enantiomer with lower value at 2.5 uM measured after 1 min by HPLC-MS/MS analysis; assay type: cell-based; conditions: hek293, 1 min
T2 sequence (Q86VL8 whole entry): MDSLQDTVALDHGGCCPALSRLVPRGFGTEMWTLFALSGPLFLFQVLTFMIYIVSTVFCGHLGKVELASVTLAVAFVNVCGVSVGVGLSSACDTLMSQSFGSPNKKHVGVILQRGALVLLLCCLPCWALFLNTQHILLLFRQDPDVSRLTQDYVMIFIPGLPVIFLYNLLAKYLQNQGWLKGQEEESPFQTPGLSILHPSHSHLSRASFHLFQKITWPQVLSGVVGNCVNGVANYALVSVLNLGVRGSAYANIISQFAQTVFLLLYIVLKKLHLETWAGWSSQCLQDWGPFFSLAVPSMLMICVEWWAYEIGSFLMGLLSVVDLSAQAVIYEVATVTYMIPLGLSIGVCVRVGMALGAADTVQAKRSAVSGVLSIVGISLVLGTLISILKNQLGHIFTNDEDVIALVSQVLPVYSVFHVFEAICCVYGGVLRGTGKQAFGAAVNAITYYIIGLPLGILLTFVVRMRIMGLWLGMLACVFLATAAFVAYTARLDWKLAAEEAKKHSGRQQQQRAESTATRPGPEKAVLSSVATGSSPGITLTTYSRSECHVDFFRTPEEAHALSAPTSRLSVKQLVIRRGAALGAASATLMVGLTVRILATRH

[3] = molecular target: T2, Multidrug and toxin extrusion protein 2; assay: Substrate activity at MATE2-K (unknown origin) expressed in HEK293 cells assessed as intrinsic clearance by measuring ratio of Vmax (maximum transport velocity) over Km measured per mg of protein by HPLC-MS/MS analysis; assay type: cell-based
[4] = molecular target: T1, Multidrug and toxin extrusion protein 1; assay: Substrate activity at MATE1 (unknown origin) expressed in HEK293 cells assessed as Vmax (maximum transport velocity) by HPLC-MS/MS analysis; assay type: cell-based
[5] = molecular target: T1, Multidrug and toxin extrusion protein 1; assay: Substrate activity at MATE1 (unknown origin) expressed in HEK293 cells assessed as intrinsic clearance by measuring ratio of Vmax (maximum transport velocity) over Km measured per mg of protein by HPLC-MS/MS analysis; assay type: cell-based
MATE2-K = molecular target: T3, MATE2-K (Homo sapiens, UniProt Q86VL8); assay: in vitro
T3 sequence (Q86VL8 whole entry): T2 sequence (Q86VL8 whole entry)

MATE1 = molecular target: T4, MATE1 (Homo sapiens, UniProt Q96FL8); assay: in vitro
T4 sequence (Q96FL8 whole entry): T1 sequence (Q96FL8 whole entry)

[6] = molecular target: T2, Multidrug and toxin extrusion protein 2; assay: Substrate activity at MATE2-K (unknown origin) expressed in HEK293 cells assessed as Vmax (maximum transport velocity) by HPLC-MS/MS analysis; assay type: cell-based
[7] = molecular target: T1, Multidrug and toxin extrusion protein 1; assay: Substrate activity at MATE1 (unknown origin) expressed in HEK293 cells assessed as increase in uptake by HPLC-MS/MS analysis; assay type: cell-based
[8] = molecular target: T2, Multidrug and toxin extrusion protein 2; assay: Substrate activity at MATE2-K (unknown origin) expressed in HEK293 cells assessed as increase in uptake by HPLC-MS/MS analysis; assay type: cell-based
[9] = HEK293 cells expressing MATE2-K

Row | Structure (SMILES) | Ratio [1] | Ratio [2] | CL [3] [µL/min] | Vmax [4] [pmol/min] | CL [5] [µL/min] | also measured
1 | O=C(O[C@H]1C[N+]2(CCCOc3ccccc3)CCC1CC2)C(O)(c1cccs1)c1cccs1.[Br-] (mixture of isomers) [ACLIDINIUM BROMIDE] | > 1 | > 1 | – | – | – | –
2 | CCN1CCCC1CNC(=O)c1cc(S(=O)(=O)CC)c(N)cc1OC (racemic) [AMISULPRIDE] | > 1 | > 1 | 17.8 | 238 | 22.4 | uptake ratio at 1 min, 2.5 µM (MATE2-K; [9]): > 2; uptake ratio at 1 min, 2.5 µM (MATE1; HEK293 cells expressing MATE1): > 2
3 | CN(C)CCc1c[nH]c2ccc(CC3COC(=O)N3)cc12 (racemic) | – | – | 32.1 | 2992 | 52.4 | Vmax [6]: 740 pmol/min
4 | CCN1CCCC1CNC(=O)c1cc(S(N)(=O)=O)ccc1OC (configuration not stated) [SULPIRIDE] | – | – | 44.9 | 851 | 53.2 | Vmax [6]: 1025 pmol/min
5 | NCCc1ccc(O)c(O)c1 [DOPAMINE] | – | – | 1.27 | 10148 | 19.2 | uptake ratio at 1 min, 2.5 µM (MATE2-K; hek293): > 2; uptake ratio at 1 min, 2.5 µM (MATE1; hek293): > 2
6 | N=C(N)c1ccc(OCCCCCOc2ccc(C(=N)N)cc2)cc1 [PENTAMIDINE] | – | – | – | – | – | Activity [7]: Dose-dependent-effect; Activity [8]: Dose-dependent-effect
7 | CN(C)C(=O)Oc1cccc([N+](C)(C)C)c1 [NEOSTIGMINE] | – | – | 8.14 | 7255 | 45.2 | Activity [7]: Dose-dependent-effect; uptake ratio at 1 min, 2.5 µM (MATE2-K; [9]): > 2; Activity [8]: Dose-dependent-effect; uptake ratio at 1 min, 2.5 µM (MATE1; HEK293 cells expressing MATE1): > 2
8 | O=C(O)c1cn(C2CC2)c2cc(N3CCNCC3)c(F)cc2c1=O [CIPROFLOXACIN] | – | – | – | – | – | Activity [7]: Dose-dependent-effect; Activity [8]: Dose-dependent-effect
9 | c1c2c(cc3c1OCO3)-c1cc3ccc4c(c3c[n+]1CC2)OCO4 [COPTISINE] | – | – | – | 2901 | – | Activity [7]: Dose-dependent-effect; uptake ratio at 1 min, 2.5 µM (MATE2-K; [9]): > 2; Activity [8]: Dose-dependent-effect; uptake ratio at 1 min, 2.5 µM (MATE1; HEK293 cells expressing MATE1): > 2
10 | COc1ccc(C(CN(C)C)C2(O)CCCCC2)cc1 (racemic) [VENLAFAXINE] | > 1 | > 1 | – | – | – | –
11 | Nc1ccn([C@H]2CC[C@@H](CO)O2)c(=O)n1 [ZALCITABINE] | – | – | – | 10171 | 6.53 | –
12 | NCCc1ccc(O)cc1 [TYRAMINE] | – | – | 2.71 | 5948 | 43.6 | uptake ratio at 1 min, 2.5 µM (MATE2-K; hek293): < 2; Vmax [6]: 2868 pmol/min; uptake ratio at 1 min, 2.5 µM (MATE1; hek293): > 2
13 | C[C@H]1N=C(N(C)C)N=C(N)N1 [IMEGLIMIN] | – | – | 34.5 | 6242 | 108 | uptake ratio at 1 min, 2.5 µM (MATE2-K; [9]): > 2; uptake ratio at 1 min, 2.5 µM (MATE1; HEK293 cells expressing MATE1): > 2
14 | COc1ccccc1OCCNCC(O)COc1cccc2[nH]c3ccccc3c12 (racemic) [CARVEDILOL] | 1 | > 1 | – | – | – | –
15 | CC(CCc1ccc(O)cc1)NCCc1ccc(O)c(O)c1 (configuration not stated) [DOBUTAMINE] | – | – | 5.71 | 2586 | 29.2 | uptake ratio at 1 min, 2.5 µM (MATE2-K; [9]): > 2; uptake ratio at 1 min, 2.5 µM (MATE1; HEK293 cells expressing MATE1): > 2
16 | [H]/N=C(/N)N/C(=N/[H])NCCc1ccccc1 [PHENFORMIN] | – | – | 18.6 | 8451 | 83.9 | uptake ratio at 1 min, 2.5 µM (MATE2-K; hek293): > 2; Vmax [6]: 1361 pmol/min; uptake ratio at 1 min, 2.5 µM (MATE1; hek293): > 2
17 | CC(=O)OC(C)C[N+](C)(C)C (configuration not stated) [METHACHOLINE] | – | – | 0.88 | 17843 | 8.98 | uptake ratio at 1 min, 2.5 µM (MATE2-K; hek293): > 2; Vmax [6]: 1240 pmol/min; uptake ratio at 1 min, 2.5 µM (MATE1; hek293): > 2
18 | CNC[C@H](O)c1ccc(O)c(O)c1 [EPINEPHRINE] | – | – | 1.97 | 22773 | 21.1 | uptake ratio at 1 min, 2.5 µM (MATE2-K; hek293): > 2; uptake ratio at 1 min, 2.5 µM (MATE1; hek293): > 2
19 | CC(C)(C)NCC(O)c1ccc(O)c(CO)c1 (racemic) [ALBUTEROL] | > 1 | > 1 | – | – | – | uptake ratio at 1 min, 2.5 µM (MATE2-K; [9]): > 2; uptake ratio at 1 min, 2.5 µM (MATE1; HEK293 cells expressing MATE1): > 2

Row | Structure (SMILES) | Ratio [1] | Ratio [2] | CL [3] [µL/min] | Vmax [4] [pmol/min] | CL [5] [µL/min] | also measured
20 | Cc1ncc(CO)c(CO)c1O [PYRIDOXINE] | – | – | 1.2 | 10014 | 2.37 | uptake ratio at 1 min, 2.5 µM (MATE2-K; hek293): < 2; uptake ratio at 1 min, 2.5 µM (MATE1; hek293): > 2
21 | C[N@+]1(CC2CC2)CC[C@]23c4c5ccc(O)c4O[C@H]2C(=O)CC[C@@]3(O)[C@H]1C5 [METHYLNALTREXONE] | – | – | – | 56 | – | –
22 | CN(C)CCC=C1c2ccccc2COc2ccccc21 [DOXEPIN] | 1 | 1 | – | – | – | –
23 | NC1CONC1=O (racemic) | 1 | > 1 | – | – | – | –
24 | CNCCC(Oc1ccccc1C)c1ccccc1 (racemic) | 1 | > 1 | – | – | – | –
25 | Nc1nc(=O)n([C@@H]2CS[C@H](CO)O2)cc1F [EMTRICITABINE] | – | – | 3.02 | 4523 | 4.56 | –
26 | CNC[C@H](O)c1cccc(O)c1 [PHENYLEPHRINE] | – | – | 1.79 | 11611 | 24.5 | uptake ratio at 1 min, 2.5 µM (MATE2-K; hek293): > 2; Vmax [6]: 776 pmol/min; uptake ratio at 1 min, 2.5 µM (MATE1; hek293): > 2
27 | CN(C)CCCC1(c2ccc(F)cc2)OCc2cc(C#N)ccc21 (racemic) [CITALOPRAM] | > 1 | > 1 | – | – | – | –
28 | Cc1cccc(C)c1OCC(C)N (racemic) [MEXILETINE] | > 1 | > 1 | – | – | – | uptake ratio at 1 min, 2.5 µM (MATE2-K; hek293): < 2; uptake ratio at 1 min, 2.5 µM (MATE1; hek293): < 2
29 | Nc1ccn([C@@H]2CS[C@H](CO)O2)c(=O)n1 [LAMIVUDINE] | – | – | – | – | – | Activity [7]: Dose-dependent-effect; Activity [8]: Dose-dependent-effect
30 | NC[C@H](O)c1ccc(O)c(O)c1 [NOREPINEPHRINE] | – | – | 0.59 | 18720 | 10 | Vmax [6]: 673 pmol/min
31 | C#CCNC1CCc2ccccc21 (racemic) | > 1 | > 1 | – | – | – | –
32 | CN(C)CCc1c[nH]c2ccc(C[C@H]3COC(=O)N3)cc12 [ZOLMITRIPTAN] | – | – | 17.6 | 2992 | 65.2 | –
33 | Cc1cc2nc3c(=O)[nH]c(=O)nc-3n(C[C@H](O)[C@H](O)[C@H](O)CO)c2cc1C [RIBOFLAVIN] | – | – | – | – | – | Activity [7]: Dose-dependent-effect; Activity [8]: Dose-dependent-effect
34 | Cc1ncc(CO)c(CN)c1O [PYRIDOXAMINE] | – | – | 0.64 | 5442 | 3.23 | uptake ratio at 1 min, 2.5 µM (MATE2-K; hek293): < 2; Vmax [6]: 989.5 pmol/min; uptake ratio at 1 min, 2.5 µM (MATE1; hek293): > 2
35 | C#CCN[C@@H]1CCc2ccccc21 [RASAGILINE] | – | – | – | 194 | – | –
36 | CNCC(O)c1cccc(O)c1 (racemic) | > 1 | > 1 | – | – | – | –
37 | CC(C)N(CCC(C(N)=O)(c1ccccc1)c1ccccn1)C(C)C (configuration not stated) [DISOPYRAMIDE] | – | – | – | – | – | uptake ratio at 1 min, 2.5 µM (MATE2-K; [9]): < 2; uptake ratio at 1 min, 2.5 µM (MATE1; HEK293 cells expressing MATE1): < 2
